Data from ChEMBL document CHEMBL1201862, “PubChem BioAssay data set” (2004).
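These data come from cells grown in 96-well plates and exposed to compound for 48 hours at five concentrations. Abbreviation: GI50, concentration required for 50% inhibition of growth.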 Activity calls are given as the source filed them. Rule as the data show it: active = GI50 up to about 1.1 µM and inactive = higher.

Columns and labels:
Assay in all cases: NCI-60 cell line screen, 48 h
ACHN = test system: ACHN
SF-295 = test system: SF-295
LOX IMVI = test system: LOX IMVI
SF-268 = test system: SF-268
SK-MEL-5 = test system: SK-MEL-5
NCI-H23 = test system: NCI-H23
Hs-578T = test system: Hs-578T
SW-620 = test system: SW-620
SF-539 = test system: SF-539
RPMI-8226 = test system: RPMI-8226
HOP-62 = test system: HOP-62
HL-60 = test system: HL-60
NCI-H522 = test system: NCI-H522
UACC-257 = test system: UACC-257
M14 = test system: M14
NCI/ADR-RES = test system: NCI/ADR-RES
NCI-H226 = test system: NCI-H226
COLO 205 = test system: COLO 205
CAKI-1 = test system: CAKI-1
MDA-MB-435 = test system: MDA-MB-435

Measured: GI50

Oc1ccc(CCNCc2cc3c(cc2Br)OCO3)cc1
inactive: ACHN 95.5 µM | SF-295 65.2 µM | LOX IMVI 88.9 µM | SF-268 > 100 µM | SK-MEL-5 27.1 µM | NCI-H23 > 100 µM | Hs-578T > 100 µM | SW-620 > 100 µM | SF-539 4.17 µM | RPMI-8226 27.9 µM | HOP-62 79.3 µM | HL-60 28.1 µM | NCI-H522 39.4 µM | UACC-257 50.2 µM | M14 38.1 µM | NCI/ADR-RES 47.5 µM | NCI-H226 32.5 µM | COLO 205 18.8 µM

CC(=O)OCC1OC(n2c(N)c(C#N)c(-c3cccc(Cl)c3)c(C#N)c2=S)C(OC(C)=O)C(OC(C)=O)C1OC(C)=O (configuration not stated)
inactive: ACHN 29.1 µM | SF-295 31.2 µM | LOX IMVI 14.7 µM | CAKI-1 26.8 µM | SF-268 13.3 µM | SK-MEL-5 14.3 µM | NCI-H23 24.2 µM | Hs-578T 20 µM | SW-620 32.7 µM | SF-539 12.6 µM | RPMI-8226 10.9 µM | HOP-62 23.3 µM | HL-60 17.9 µM | MDA-MB-435 15.4 µM | UACC-257 22 µM | M14 22.4 µM | NCI/ADR-RES 28.4 µM | COLO 205 16.2 µM

O=C1CC(C(OCc2ccccc2)C(OCc2ccccc2)C(OCc2ccccc2)C(COCc2ccccc2)OCc2ccccc2)CC(=O)N1 (configuration not stated)
inactive: ACHN > 100 µM | SF-295 > 100 µM | LOX IMVI > 100 µM | SF-268 > 100 µM | SK-MEL-5 > 100 µM | NCI-H23 > 100 µM | Hs-578T > 100 µM | SW-620 > 100 µM | RPMI-8226 > 100 µM | HOP-62 > 100 µM | HL-60 > 100 µM | MDA-MB-435 > 100 µM | UACC-257 > 100 µM | M14 > 100 µM | NCI/ADR-RES > 100 µM

COc1ccc(/C=N/Nc2nnc3c(n2)c2ccccc2c2nn(-c4ccccc4Cl)nc23)cc1
inactive: ACHN > 100 µM | SF-295 > 100 µM | LOX IMVI > 100 µM | CAKI-1 > 100 µM | SF-268 > 100 µM | SK-MEL-5 > 100 µM | NCI-H23 > 100 µM | Hs-578T 71.6 µM | SW-620 > 100 µM | RPMI-8226 > 100 µM | HOP-62 > 100 µM | MDA-MB-435 > 100 µM | NCI-H522 > 100 µM | UACC-257 > 100 µM | M14 > 100 µM | NCI/ADR-RES > 100 µM | NCI-H226 > 100 µM | COLO 205 > 100 µM

COc1ccc(/C=C2/S/C(=N\c3ccccc3)N(NC(=O)Cc3ccccc3)C2=O)c(OC)c1
inactive: ACHN > 100 µM | SF-295 > 100 µM | SF-268 > 100 µM | SK-MEL-5 69.5 µM | NCI-H23 > 100 µM | Hs-578T > 100 µM | SW-620 > 100 µM | SF-539 > 100 µM | RPMI-8226 > 100 µM | HOP-62 > 100 µM | MDA-MB-435 > 100 µM | UACC-257 > 100 µM | M14 > 100 µM | NCI/ADR-RES > 100 µM | NCI-H226 > 100 µM | COLO 205 > 100 µM

CO/N=C(\C(=O)[N-]n1cn[n+](CC(=O)OC(C)(C)C)c1)c1csc(NC(c2ccccc2)(c2ccccc2)c2ccccc2)n1
inactive: ACHN > 10 µM | SF-295 > 10 µM | LOX IMVI > 10 µM | CAKI-1 > 10 µM | SF-268 > 10 µM | SK-MEL-5 > 10 µM | NCI-H23 > 10 µM | Hs-578T > 10 µM | SW-620 > 10 µM | SF-539 > 10 µM | RPMI-8226 > 10 µM | HOP-62 > 10 µM | HL-60 > 10 µM | NCI-H522 > 10 µM | UACC-257 > 10 µM | M14 > 10 µM | NCI/ADR-RES > 10 µM | NCI-H226 > 10 µM | COLO 205 > 10 µM

CC12CP(=O)(c3ccccc3)CC1c1ccccc1C2c1ccccc1 (configuration not stated)
inactive: ACHN 18 µM | SF-295 15.6 µM | SF-268 26.1 µM | SK-MEL-5 19.1 µM | NCI-H23 20.7 µM | Hs-578T 26.3 µM | SW-620 17 µM | SF-539 17.8 µM | HOP-62 18.5 µM | HL-60 7.52 µM | MDA-MB-435 15.2 µM | M14 17.5 µM | NCI/ADR-RES 14.2 µM | NCI-H226 19.7 µM

CCCC/C=C/C/C=C/CCCCCCCCC(=O)OCC1CCCN2CCCCC12 (configuration not stated)
inactive: ACHN > 100 µM | SF-295 > 100 µM | LOX IMVI 76.9 µM | CAKI-1 31 µM | SF-268 > 100 µM | SK-MEL-5 > 100 µM | NCI-H23 > 100 µM | Hs-578T > 100 µM | SW-620 > 100 µM | SF-539 > 100 µM | RPMI-8226 > 100 µM | HOP-62 > 100 µM | HL-60 17.3 µM | MDA-MB-435 > 100 µM | UACC-257 63.2 µM | M14 > 100 µM | NCI/ADR-RES > 100 µM | NCI-H226 > 100 µM | COLO 205 93.3 µM
